The values that follow come from patent publication US20140037574A1, “PHARMACEUTICAL COMPOSITION” (priority 2010, published 2014).

This data set concerns the target CYP3A4 (Homo sapiens, UniProt P08684). Kind of data set: Inhibition of CYP3A4-catalysed felodipine metabolism in human liver microsomes (HLM). The note with it: for IC50: HLM, felodipine at its Km as substrate; for inhibition at 10 min: human, microsomes, pH 7.4. The protocol:
G6PDH (40 U/mL) was prepared in 5 mM sodium citrate solution and stored at −20° C. until use. […] The preparation of NRS was completed right before use. It was made such that on addition to the HLM incubation mixture, it contained 2.6 mM NADP', 6.7 mM G6P, […] and 0.8 U/ml G6PDH.
Substrate (felodipine) solutions were prepared over a range of 0.01-100.0 mM in acetonitrile. […] This was kept on ice until use.
The reaction was halted by a stop solution made of cooled acetonitrile (−20° C.).
Supernatants were filtered through […] and analysed by the UPLC method developed in order to quantify the extent of felodipine metabolism. The rate of metabolism, determined as the rate of disappearance of substrate, was profiled against the substrate concentration to determine the enzyme kinetic parameters.
Felodipine at its determined Km was incubated in HLM as described above except for the addition of inhibitors. […] Supernatants were analysed using the developed UPLC method. […] Another control was incubated without inhibitors to allow for maximum metabolism. […] At higher concentrations, the effect of acetonitrile on enzymatic activity could be significant. It is therefore recommended that not >1% acetonitrile should be included in the incubation mixture. […] The final concentration of acetonitrile in the incubation mixture was 1%.
Their inhibitory effects were investigated on microsomal metabolism of felodipine. The potencies of the inhibitors were measured as their IC50 values determined through non-linear regression of the percentage inhibition of felodipine metabolism against inhibitor concentration. […] The concentration of felodipine in incubation mixtures containing the various inhibitors and the modelled pre-systemic enzymatic modulators was determined and the extent of metabolism was measured as percentage of control.
A general note: Microsomes from liver hold many membrane-bound enzymes, among them those of drug oxidation.

Sequence of CYP3A4 (P08684 whole entry): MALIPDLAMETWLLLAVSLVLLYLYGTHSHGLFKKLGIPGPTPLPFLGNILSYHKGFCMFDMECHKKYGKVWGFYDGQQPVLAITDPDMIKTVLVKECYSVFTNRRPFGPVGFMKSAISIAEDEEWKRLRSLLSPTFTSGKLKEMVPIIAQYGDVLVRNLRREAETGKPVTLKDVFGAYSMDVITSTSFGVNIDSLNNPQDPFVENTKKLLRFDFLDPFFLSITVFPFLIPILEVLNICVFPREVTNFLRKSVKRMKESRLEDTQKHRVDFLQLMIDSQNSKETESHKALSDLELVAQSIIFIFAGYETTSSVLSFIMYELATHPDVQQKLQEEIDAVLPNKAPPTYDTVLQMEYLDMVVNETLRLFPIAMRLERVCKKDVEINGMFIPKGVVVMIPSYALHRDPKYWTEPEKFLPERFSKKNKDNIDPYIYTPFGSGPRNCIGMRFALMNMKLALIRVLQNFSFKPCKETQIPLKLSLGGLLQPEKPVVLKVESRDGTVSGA

What is called IC50 is the concentration that gives 50% inhibition. A lower IC50 goes with inhibition by little substance. The inhibition is the drop in the measured response relative to a control, in per cent. `C[C@@H]1O[C@@H](O[C@H]2[C@H](Oc3cc(O)c4c(c3)O[C@H](c3ccc(O)cc3)CC4=O)O[C@H](CO)[C@@H](O)[C@@H]2O)[C@H](O)[C@H](O)[C@H]1O` [Naringin, naringin] had an inhibition at 10 min of 98%. The compound further had a 50% inhibitory concentration (IC50) (IC50 (mg/mL)) of 178 µM. Also, the IC50 (IC50 (μM), Table 1) came to 178 µM.

Compound `O=C1C[C@@H](c2ccc(O)cc2)Oc2cc(O)cc(O)c21` [Naringenin, naringenin] yielded an inhibition at 10 min of 95%.

The compound `O=c1c(O)c(-c2ccc(O)c(O)c2)oc2cc(O)cc(O)c12` [Quercetin, quercetin] displayed an inhibition at 10 min of 98%.
